Test results as given in PMC6713165, “Identification of 1H-pyrazolo[3,4-b]pyridine derivatives as potent ALK-L1196M inhibitors” (Journal of Enzyme Inhibition and Medicinal Chemistry, 2019).
Read-outs that look alike come from different tables or passages of the source.

Tests used:
ALK-L1196M = ALK-L1196M (Homo sapiens, UniProt Q9UM73, L1196M); assay: Radiometric biochemical kinase assay, ALK-L1196M; settings: for IC50: radiometric kinase assay, 10 µM ATP
Method: (§1) Biochemical kinase assay was performed by methods previously reported. Kinase reactions of all test compounds except 10g were carried out at 10 µM ATP. Kinase reaction of 10g was performed at three different concentrations of ATP (10/50/100 µM).

Parental Ba/F3 cells = assay: Anti-proliferation assay (CTG), parental Ba/F3; assay type: cell-based; settings: with IL-3, mean ± SD of three independent experiments; for GI50 Ba/F3 cell lines Parental: 72 h; for GI50: Mus musculus, BaF3, 72 h, read-out: GI50 Ba/F3 cell lines Parental
Method: (§2) ALK wt-TEL, ALK L1196M-TEL transformed Ba/F3 and H2228 cell lines were cultured in RPMI1640 (Welgene, # LM011-01). […] Parental Ba/F3 cells were cultured in RPMI1640 media supplemented with 10% foetal bovine serum and 1% penicillin/streptomycin solution in the presence of IL-3. The cells were maintained in a humidified atmosphere containing 5% CO2 at 37 °C.
(§3) Cells (ALK wt-TEL, ALK L1196M-TEL and Parental Ba/F3: 1 × 10^4, H2228: 5 × 10^3) were plated in 96 well tissue culture plates. Each compound was added to each well at 10 dose points of three-fold serial dilution in DMSO. After treatment with each compound for 72 h, CTG assay solution (Promega, # G7572) was added to each well.

ALK-wt = ALK-wt (Homo sapiens, UniProt Q9UM73); assay: Radiometric biochemical kinase assay, ALK-wt; settings: radiometric kinase assay, 10 µM ATP; for IC50: read-out: IC50 ALK-wt
Method: as §1

[1] = test system: ALK L1196M-TEL Ba/F3 cells; assay: Anti-proliferation assay (CTG), ALK L1196M-TEL Ba/F3; assay type: cell-based; settings: for GI50: Mus musculus, BaF3, read-out: GI50 Ba/F3 cell lines ALKL1196M-TEL; for differential cytotoxicity against ALK-L1196M Ba/F3 cells vs. parental Ba/F3 cells compared with crizotinib: in words
Method: as §2, §3

ALK wt-TEL Ba/F3 cells = assay: Anti-proliferation assay (CTG), ALK wt-TEL Ba/F3; assay type: cell-based; settings: 72 h, CTG, mean ± SD of three independent experiments; for GI50: Mus musculus, BaF3, read-out: GI50 Ba/F3 cell lines ALK wt-TEL
Method: as §2, §3

H2228 (EML4-ALK) cells = assay: Anti-proliferation assay (CTG), H2228; assay type: cell-based; settings: mean ± SD of three independent experiments; for GI50 H2228 (EML4-ALK): 72 h; for GI50: Homo sapiens, NCI-H2228, 72 h
Method: as §2, §3

[2] = Permeability assessment using Caco-2 cells; assay type: in vitro ADME, human; settings: human; for efflux ratio at 120 min, 10 µM / Papp B→A at 120 min, 10 µM: Caco-2, 10 µM
Method: (§4) Stock solutions (10 mM) of reference compounds and 10g were diluted to a concentration of 10 µM with the transport buffer (HBSS + 1%BSA) and the test compounds were applied to the apical or basolateral side of the cell monolayer. […] In addition, the efflux ratio of each compound was also determined. Reference compounds and 10g were quantified by LC-MS/MS analysis based on the peak area ratio of analyte/the internal standard.

Caco-2 cells = assay: Permeability assessment using Caco-2 cells; assay type: in vitro ADME, human; settings: P-gp substrate status from efflux ratio
Method: as §4

[3] = 72 h, CTG, mean ± SD of three independent experiments
[4] = Caco-2, Caco-2, 10 µM, 120 min, 37 °C, HBSS + 1%BSA, read-out: Mean Papp A to B
[5] = Caco-2, Caco-2, 10 µM, 120 min, read-out: Mean recovery % A to B
[6] = Caco-2, Caco-2, 10 µM, 120 min, read-out: Mean recovery % B to A
[7] = Caco-2, Caco-2 permeability class from Papp (A to B), read-out: Rank Papp

Chain of ALK-wt (Q9UM73 19-1620): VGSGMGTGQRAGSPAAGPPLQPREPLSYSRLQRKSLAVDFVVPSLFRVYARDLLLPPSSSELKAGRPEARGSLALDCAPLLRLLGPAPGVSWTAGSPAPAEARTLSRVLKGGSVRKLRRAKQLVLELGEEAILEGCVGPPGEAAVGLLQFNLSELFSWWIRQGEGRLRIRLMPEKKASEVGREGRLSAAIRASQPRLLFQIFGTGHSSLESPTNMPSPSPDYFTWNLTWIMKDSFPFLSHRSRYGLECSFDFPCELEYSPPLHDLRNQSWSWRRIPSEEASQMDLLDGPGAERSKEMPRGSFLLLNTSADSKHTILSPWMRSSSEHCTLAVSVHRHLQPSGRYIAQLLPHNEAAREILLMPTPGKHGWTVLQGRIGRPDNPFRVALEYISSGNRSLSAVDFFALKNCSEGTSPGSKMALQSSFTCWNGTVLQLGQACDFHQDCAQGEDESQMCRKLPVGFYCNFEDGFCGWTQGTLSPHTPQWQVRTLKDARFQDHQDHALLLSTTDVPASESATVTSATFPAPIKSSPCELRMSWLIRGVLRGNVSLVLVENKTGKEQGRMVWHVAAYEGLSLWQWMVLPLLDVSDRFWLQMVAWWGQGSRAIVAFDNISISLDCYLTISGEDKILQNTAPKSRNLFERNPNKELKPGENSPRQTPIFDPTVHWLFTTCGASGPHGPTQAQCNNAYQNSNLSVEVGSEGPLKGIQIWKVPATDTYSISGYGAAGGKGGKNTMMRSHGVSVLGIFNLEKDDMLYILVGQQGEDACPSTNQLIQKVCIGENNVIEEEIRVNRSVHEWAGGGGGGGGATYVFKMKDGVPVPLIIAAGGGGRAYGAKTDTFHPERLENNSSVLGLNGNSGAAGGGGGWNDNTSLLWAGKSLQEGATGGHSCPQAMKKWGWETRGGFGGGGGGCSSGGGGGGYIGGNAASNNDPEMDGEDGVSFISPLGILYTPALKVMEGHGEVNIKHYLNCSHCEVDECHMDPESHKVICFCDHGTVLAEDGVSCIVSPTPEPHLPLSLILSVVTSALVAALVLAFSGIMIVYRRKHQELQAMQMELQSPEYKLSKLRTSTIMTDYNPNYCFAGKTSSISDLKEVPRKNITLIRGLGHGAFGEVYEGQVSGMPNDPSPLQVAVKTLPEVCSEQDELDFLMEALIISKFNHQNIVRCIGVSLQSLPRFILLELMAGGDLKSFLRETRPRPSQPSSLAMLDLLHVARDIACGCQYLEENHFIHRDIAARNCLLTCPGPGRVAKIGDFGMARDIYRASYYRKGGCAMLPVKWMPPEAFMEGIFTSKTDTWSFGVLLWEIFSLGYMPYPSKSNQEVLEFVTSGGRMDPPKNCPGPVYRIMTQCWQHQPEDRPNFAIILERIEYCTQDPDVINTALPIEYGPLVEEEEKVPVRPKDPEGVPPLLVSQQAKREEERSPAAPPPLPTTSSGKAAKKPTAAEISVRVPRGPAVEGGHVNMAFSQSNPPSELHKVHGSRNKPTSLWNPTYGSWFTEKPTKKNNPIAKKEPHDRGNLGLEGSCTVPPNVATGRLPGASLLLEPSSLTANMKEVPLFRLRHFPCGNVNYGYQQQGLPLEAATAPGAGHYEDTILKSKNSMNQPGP
Chain of ALK-L1196M (Q9UM73 19-1620 L1196M): as the sequence (Q9UM73 19-1620) above, with L1178M counted along it

Q: For `COc1ccc(C(=O)Nc2n[nH]c3ncc(S(=O)(=O)c4cccc(F)c4)cc23)cc1` [10d, N-(5-((3-Fluorophenyl)sulfonyl)-1H-pyrazolo[3,4-b]pyridin-3-yl)-4-methoxybenzamide], which “activity against ALK-L1196M relative to crizotinib” value (ALK-L1196M; IC50 19 nM vs 980 nM of crizotinib) is on record?
A: 50 fold

Q: What about the IC50 (ALK-L1196M) of the same compound?
A: 19 nM

Q: What about the “GI50 Ba/F3 cell lines Parental” value (Parental Ba/F3 cells) of the same compound?
A: Inactive

Q: And the IC50 (ALK-wt)?
A: 69 nM

Q: And the “GI50 Ba/F3 cell lines ALKL1196M-TEL” value [1, 3]?
A: Inactive

Q: And the “GI50 Ba/F3 cell lines ALK wt-TEL” value (ALK wt-TEL Ba/F3 cells)?
A: Inactive

Q: What about the “GI50 H2228 (EML4-ALK)” value (H2228 (EML4-ALK) cells) of the same compound?
A: Inactive

Q: With `N#Cc1ccc(C(=O)Nc2n[nH]c3ncc(S(=O)(=O)c4cccc(F)c4)cc23)cc1` [10a, 4-Cyano-N-(5-((3-fluorophenyl)sulfonyl)-1H-pyrazolo[3,4-b]pyridin-3-yl)benzamide] as the compound, how does the IC50 (ALK-wt) read?
A: 453 nM

Q: Which “IC50 ALK-wt” value (ALK-wt) does the source give for `O=C(Nc1n[nH]c2ncc(S(=O)(=O)c3cccc(F)c3)cc12)c1cccc(C(F)(F)F)c1` [10b, N-(5-((3-Fluorophenyl)sulfonyl)-1H-pyrazolo[3,4-b]pyridin-3-yl)-3-(trifluoromethyl)benzamide] here?
A: little to no activity

Q: With `O=C(Nc1n[nH]c2ncc(S(=O)(=O)c3cccc(F)c3)cc12)c1ccc(C(F)(F)F)cc1` [10c, N-(5-((3-Fluorophenyl)sulfonyl)-1H-pyrazolo[3,4-b]pyridin-3-yl)-4-(trifluoromethyl)benzamide] as the compound, how does the “IC50 ALK-wt” value (ALK-wt) read?
A: little to no activity

Q: What does the source list for `CN(C)c1ccc(C(=O)Nc2n[nH]c3ncc(S(=O)(=O)c4cccc(F)c4)cc23)cc1` [10e, 4-(Dimethylamino)-N-(5-((3-fluorophenyl)sulfonyl)-1H-pyrazolo[3,4-b]pyridin-3-yl)benzamide]?
A: IC50 (ALK-L1196M): 0.7 nM; GI50 Ba/F3 cell lines Parental (Parental Ba/F3 cells): Inactive; IC50 (ALK-wt): 7.3 nM; GI50 [1, 3]: 4550 ± 720 nM; differential cytotoxicity against ALK-L1196M Ba/F3 cells vs. parental Ba/F3 cells compared with crizotinib [1]: higher differential cytotoxicities; GI50 (ALK wt-TEL Ba/F3 cells): 1770 ± 690 nM; GI50 (H2228 (EML4-ALK) cells): 8540 ± 780 nM

Q: Which Papp A→B at 120 min, 10 µM [2, 4] does the source give for `CC(C)NCC(O)COc1cccc2ccccc12` (centres unmarked) [Propranolol] here?
A: 16.1 ×10⁻⁶ cm/s

Q: What about the recovery at 120 min, 10 µM [2, 5] of the same compound?
A: 84.8%

Q: What about the recovery at 120 min, 10 µM [2, 6] of the same compound?
A: 91.7%

Q: And the Papp A→B at 120 min, 10 µM [2, 7]?
A: > 10 ×10⁻⁶ cm/s

Q: And the efflux ratio at 120 min, 10 µM ([2]; 120 min)?
A: 0.52

Q: And the Papp B→A at 120 min, 10 µM ([2]; 120 min, 37 °C, HBSS + 1%BSA)?
A: 8.42 ×10⁻⁶ cm/s

Q: What does the source list for `C[C@H]1O[C@@H](O[C@H]2[C@@H](O)C[C@H](O[C@H]3[C@@H](O)C[C@H](O[C@H]4CC[C@@]5(C)[C@H](CC[C@@H]6[C@@H]5C[C@@H](O)[C@]5(C)[C@@H](C7=CC(=O)OC7)CC[C@]65O)C4)O[C@@H]3C)O[C@@H]2C)C[C@H](O)[C@@H]1O` [Digoxin]?
A: Rank P-gp (Caco-2 cells): Substrate; Papp A→B at 120 min, 10 µM [2, 4]: 0.43 ×10⁻⁶ cm/s; recovery at 120 min, 10 µM [2, 5]: 96.8%; recovery at 120 min, 10 µM [2, 6]: 95.1%; Papp A→B at 120 min, 10 µM [2, 7]: < 2.5 ×10⁻⁶ cm/s; efflux ratio at 120 min, 10 µM ([2]; 120 min): 20.2; Papp B→A at 120 min, 10 µM ([2]; 120 min, 37 °C, HBSS + 1%BSA): 8.6 ×10⁻⁶ cm/s

Q: Which “GI50 Ba/F3 cell lines Parental” value (Parental Ba/F3 cells) does the source give for `Nc1ccc(C(=O)Nc2n[nH]c3ncc(S(=O)(=O)c4cccc(F)c4)cc23)cc1` [compound 12, 4-Amino-N-(5-((3-fluorophenyl)sulfonyl)-1H-pyrazolo[3,4-b]pyridin-3-yl)benzamide] here?
A: Inactive

Q: And the GI50 [1, 3]?
A: 1980 ± 280 nM

Q: What about the “differential cytotoxicity against ALK-L1196M Ba/F3 cells vs. parental Ba/F3 cells compared with crizotinib” value (from here on “differential cytotoxicity”) [1] of the same compound?
A: higher differential cytotoxicities

Q: And the GI50 (ALK wt-TEL Ba/F3 cells)?
A: 3870 ± 1540 nM

Q: What about the GI50 (H2228 (EML4-ALK) cells) of the same compound?
A: 4030 ± 1810 nM

Q: Which IC50 (ALK-L1196M) does the source give for `O=C(Nc1n[nH]c2ncc(S(=O)(=O)c3cccc(F)c3)cc12)c1ccc(N2CCOCC2)cc1` [10f, N-(5-((3-Fluorophenyl)sulfonyl)-1H-pyrazolo[3,4-b]pyridin-3-yl)-4-morpholinobenzamide] here?
A: 1.4 nM

Q: What about the “GI50 Ba/F3 cell lines Parental” value (Parental Ba/F3 cells) of the same compound?
A: Inactive

Q: What about the “IC50 ALK-wt” value (ALK-wt) of the same compound?
A: Picomolar inhibitory activity

Q: What about the GI50 [1, 3] of the same compound?
A: 2530 ± 1500 nM

Q: What about the “differential cytotoxicity” value [1] of the same compound?
A: higher differential cytotoxicities

Q: What about the GI50 (ALK wt-TEL Ba/F3 cells) of the same compound?
A: 916 ± 500 nM

Q: What about the GI50 (H2228 (EML4-ALK) cells) of the same compound?
A: 1690 ± 400 nM

Q: With `C[C@@H](Oc1cc(-c2cnn(C3CCNCC3)c2)cnc1N)c1c(Cl)ccc(F)c1Cl` [crizotinib, reference compound] as the compound, how does the GI50 (Parental Ba/F3 cells) read?
A: 1650 ± 130 nM

Q: With `CN1CCN(c2cccc(C(=O)Nc3n[nH]c4ncc(S(=O)(=O)c5cccc(F)c5)cc34)c2)CC1` [10h, N-(5-((3-Fluorophenyl)sulfonyl)-1H-pyrazolo[3,4-b]pyridin-3-yl)-3–(4-methylpiperazin-1-yl)benzamide] as the compound, how does the GI50 (Parental Ba/F3 cells) read?
A: 15200 ± 520 nM

Q: And the GI50 [1, 3]?
A: 2280 ± 590 nM

Q: And the “differential cytotoxicity” value [1]?
A: higher differential cytotoxicities

Q: What about the GI50 (ALK wt-TEL Ba/F3 cells) of the same compound?
A: 3350 ± 240 nM

Q: What about the “GI50 H2228 (EML4-ALK)” value (H2228 (EML4-ALK) cells) of the same compound?
A: Inactive

Q: Which results are given for `CS(=O)(=O)Nc1ccc(C(=O)Nc2n[nH]c3ncc(S(=O)(=O)c4cccc(F)c4)cc23)cc1` [13c, N-(5-((3-Fluorophenyl)sulfonyl)-1H-pyrazolo[3,4-b]pyridin-3-yl)-4-(methylsulfonamido)benzamide]?
A: GI50 Ba/F3 cell lines Parental (Parental Ba/F3 cells): inactive; GI50 [1, 3]: 5620 ± 2340 nM; differential cytotoxicity against ALK-L1196M Ba/F3 cells vs. parental Ba/F3 cells compared with crizotinib [1]: higher differential cytotoxicities; GI50 (ALK wt-TEL Ba/F3 cells): 4710 ± 3020 nM; GI50 (H2228 (EML4-ALK) cells): 9220 ± 1920 nM
